Source: PubChem BioAssay (NCI)
“And” between values parts separate entries of the source, which are not always exact repeats. Equal values may be shown once.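 Interpolation was linear, between the two tested concentrations surrounding the appropriate level; five concentrations were tested over 48 hours in 96-well plates. At the TGI there is no net growth.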

Experiments:
Experiment in all cases: NCI-60 cell line screen, 48 h
TK-10 renal = tested on: TK-10 renal
NCI-H226 lung = tested on: NCI-H226 lung
IGROV1 ovarian = tested on: IGROV1 ovarian
COLO 205 colon = tested on: COLO 205 colon
OVCAR-3 ovarian = tested on: OVCAR-3 ovarian

SMILES	TGI (TK-10 renal)	TGI (NCI-H226 lung)	TGI (IGROV1 ovarian)	TGI (COLO 205 colon)	TGI (OVCAR-3 ovarian)
CCOC(=O)/C=C1\C[C@H](NC(=O)OCc2ccccc2)C(=O)N1CC(=O)OCC	> 100 µM	> 100 µM	> 100 µM	> 100 µM	> 100 µM
CC(=O)Oc1cc2c(n(C)c1=O)CCC2	> 100 µM	> 100 µM	> 100 µM	> 100 µM	–
O=Cc1ccc2[nH]c(=O)oc2c1	> 100 µM	> 100 µM	> 100 µM	> 100 µM	> 100 µM
Cc1c(C=C(C#N)C#N)c(=O)n(C)c(=O)n1C	> 100 µM	> 100 µM	> 100 µM	> 100 µM	> 100 µM
C1COCCOP2(N3CC3)=NP(N3CC3)(=NP(N3CC3)(N3CC3)=N2)OCCOCCO1 (centres undefined)	> 100 µM	> 100 µM	> 100 µM	> 100 µM	> 100 µM
CC(=O)Oc1ccc2c3c1[C@@H]1O[C@@H]1c1cccc(c1-3)[C@@H]1O[C@H]21	6.12 µM	84.2 µM	–	4.36 µM	–
CC(C)(C)c1cc2c(O)c(c1)COCc1cc(C(C)(C)C)cc(c1O)COCc1cc(C(C)(C)C)cc(c1O)COC2	> 100 µM	> 100 µM	> 100 µM	> 100 µM	> 100 µM
CCCCn1c2c(n(CCCC)c1=[Se])-c1c(n(CCCC)c(=[Se])n1CCCC)S[Se][Se]S2	43.3 µM	39 µM	18.5 µM	39.4 µM	25 µM
Cc1cccc2c(=O)c3c(O)cc4c(c3n(C)c12)C=CC(C)(C)O4	> 100 µM	> 100 µM	> 100 µM	> 100 µM	> 100 µM
COc1cc(C2SC(N)=Nc3c2c(C)nn3C(=O)c2ccc(Cl)cc2)ccc1O (centres undefined)	> 10 µM	> 10 µM	> 10 µM	> 10 µM	> 10 µM
Cc1ccc(S(=O)(=O)N/N=C2\CC3C4CCC3C2C4)cc1 (centres undefined)	> 100 µM	> 100 µM	> 100 µM	> 100 µM	> 100 µM
Cc1cc(C)nc(NS(=O)(=O)c2ccc(NC(=O)c3ccc4nc5ccccc5c(Nc5ccc(S(=O)(=O)Nc6nc(C)cc(C)n6)cc5)c4c3)cc2)n1	> 100 µM	> 100 µM	> 100 µM	> 100 µM	> 100 µM
COc1ccc(-c2cc(-c3ccccc3)nc(N)n2)c(O)c1	> 100 µM	> 100 µM	> 100 µM	> 100 µM	> 100 µM
Cc1ccc(C)c(C(=N)c2ccccc2Cc2ccccc2)c1	> 100 µM	33.9 µM	> 100 µM	66.9 µM	27.2 µM
CCN(CC)c1ccc2cc(-c3csc(-c4ccc(N(C)C)cc4)n3)c(=O)oc2c1	> 100 µM	> 100 µM	> 100 µM	> 100 µM	–
OCC(O)C(O)C(C=NNc1ncnc2ccc(Br)cc12)=NNc1ncnc2ccc(Br)cc12 (centres undefined)	> 100 µM	–	12.2 µM and > 100 µM	> 100 µM	28.2 µM and > 100 µM
N=c1oc2ccc(Cl)cc2cc1C(=O)NC1CCCCC1	–	> 100 µM	> 100 µM	> 100 µM	> 100 µM
NNC(=O)CSc1nnc(CCCCCCCCc2nnc(SCC(=O)NN)o2)o1	> 100 µM	> 100 µM	> 100 µM	> 100 µM	–
O=C(CSCC(=O)N/N=C/c1ccncc1)N/N=C/c1ccncc1	> 100 µM	> 100 µM	> 100 µM	–	> 100 µM
COc1cc(OC)cc(Oc2nc3c(N)cc(C(F)(F)F)cc3nc2-c2ccccc2)c1	> 100 µM	> 100 µM	> 100 µM	64.3 µM	–
NC(=O)N/N=C/c1ccccc1O	> 100 µM	> 100 µM	> 100 µM	> 100 µM	–
CC1CC/C(=C\c2ccc(F)cc2)C2=C1C(c1ccc(F)cc1)n1c(s/c(=C\c3ccc(Cl)cc3)c1=O)=N2 (centres undefined)	> 100 µM	–	> 100 µM	–	–
Cc1ccc(S(=O)(=O)NC(=O)NCC(=O)O)cc1	> 100 µM	–	> 100 µM	> 100 µM	–
O[C@H]1[C@@H]2OC[C@@H](O)[C@H](OCc3ccccc3)[C@@](COCc3ccccc3)(O2)[C@@H]1OCc1ccccc1	32.5 µM	–	27.5 µM	32.8 µM	19.4 µM
Cc1cc2nc3c(C#N)c4c(c(Nc5ccc(Cl)cc5)n3c2cc1C)CCC4	40.9 µM	64.7 µM	–	59.1 µM	35.4 µM
CC(C)[Si](OC1=CCC[C@H]2NC(=O)[C@@H](Cc3ccc([N+](=O)[O-])cc3)[C@@]12C)(C(C)C)C(C)C	23.9 µM	–	28.8 µM	17 µM	11.7 µM
C[Si](C)(C)C#CCOC=C1CC1	> 100 µM	> 100 µM	> 100 µM	> 100 µM	–
S=c1sscc1N1CCSc2ssc(=S)c21	81.8 µM	> 100 µM	> 100 µM	> 100 µM	–
CCCNC(=O)c1cc(NC(=O)c2cc(NC(=O)CCS(=O)(=O)OC)cn2C)cn1C	> 100 µM	–	> 56.5 µM	22.7 µM	27.4 µM
